Laboratory results as given in ChEMBL document CHEMBL3227967, “Quantitative structure-activity relationships in 1-aryl-2-(alkylamino)ethanol antimalarials” (J Med Chem, 1979).

Test system: Plasmodium berghei
Experiment: Antimalarial activity against Plasmodium berghei
Assay type: functional

Row | SMILES | log(1/C)
1 | CCCCCCCN(CCCCCCC)CC(O)c1cc(Cl)cc2ccc(-c3ccc(Cl)cc3)nc12 (stereo not drawn) | 2.34
2 | CCCN(CCC)CC(O)c1cc2cc(C(F)(F)F)cc(C(F)(F)F)c2c2cc(Cl)c(Cl)cc12 (stereo not drawn) | 5.18
3 | CCCCN(CCCC)CC(O)c1cc2ccc(Br)cc2c2cc(C)sc12 (stereo not drawn) | 2.44
4 | CCCCN(CCCC)CC(O)c1cc(-c2ccc(Cl)cc2)nc2ccc(Cl)cc12 (stereo not drawn) | 3.8
5 | CCCCCCN(CCCCCC)CC(O)c1cc(-c2ccc(OC)cc2)nc2cc(OC)c(Cl)cc12 (stereo not drawn) | 2.64
6 | Cc1cccc2c(C(O)CC3CCCCN3)cc(-c3ccccc3)nc12 (stereo not drawn) | 3.38
7 | CCCCN(CCCC)CC(O)c1cc(-c2ccc(Cl)cc2)nc(-c2ccc(Cl)cc2)c1.O=C(O)CCC(=O)O (stereo not drawn) | 3.71
8 | CCN(CC)CC(O)c1cc2ccc(Cl)cc2nc1-c1ccc(Cl)cc1 (stereo not drawn) | 2.11
9 | C=C[C@H]1CN2CC[C@H]1C[C@H]2[C@H](O)c1cc(-c2ccccc2)nc2ccc(OC)cc12 | 2.72
10 | CCCCN(CCCC)CC(O)c1nc(-c2ccc(Cl)cc2)nc2ccccc12 (stereo not drawn) | 2.85
11 | OC(CNC1CC1)c1cc(-c2ccc(Cl)c(Cl)c2)nc2c(Cl)cc(Cl)cc12 (stereo not drawn) | 3.6
12 | OC(CC1CCCCN1)c1cc2cc(C(F)(F)F)cc(C(F)(F)F)c2c2cc(Cl)ccc12 (stereo not drawn) | 4.72
13 | CCCCCN(CCCCC)CC(O)c1cc(-c2ccccc2)nc2ccccc12 (stereo not drawn) | 2.57
14 | OC(CNC1CCCC1)c1cc(-c2ccccc2)nc2c(Cl)cc(Cl)cc12 (stereo not drawn) | 2.54
15 | CCCCN(CCCC)CC(O)c1cc(-c2ccc(Cl)cc2)nc2cc(C(F)(F)F)ccc12 (stereo not drawn) | 4.14
16 | CCCCN(CCCC)CC(O)c1cc2cc(Br)ccc2c2cc(SC)ccc12 (stereo not drawn) | 3.04
17 | CCOCCN(CCOCC)CC(O)c1cc(-c2ccc(Cl)c(Cl)c2)nc2ccc(OC)cc12 (stereo not drawn) | 2.83
18 | OC(CNC12CC3CC(CC(C3)C1)C2)c1cc(-c2ccc(Cl)cc2)nc2c(Cl)cc(Cl)cc12 (stereo not drawn) | 3.59
19 | CCCCCCCN(CCCCCCC)CC(O)c1c(Br)ccc2c1ccc1ccccc12 (stereo not drawn) | 2.5
20 | OC(CC1CCCCN1)c1cc2ccc(Br)cc2c2cc(C(F)(F)F)ccc12 (stereo not drawn) | 3.7
21 | CCCCCCCN(CCCCCCC)CC(O)c1cc2ccccc2c2cc(F)ccc12 (stereo not drawn) | 3.08
22 | COc1ccc(-c2cc(C(O)CC3CCCCN3)c3cccc(C)c3n2)cc1 (stereo not drawn) | 3.18
23 | CCCCN(CCCC)CC(O)c1cc(Oc2cc(Cl)cc(Cl)c2)cc2c(Cl)cc(Cl)cc12 (stereo not drawn) | 2.9
24 | CCCCN(CCCC)CCC(O)c1cc2c(Cl)cc(Cl)cc2c2cc(C(F)(F)F)ccc12 (stereo not drawn) [HALOFANTRINE] | 4.47
25 | CCCCCCN(CCCCCC)CC(O)c1cc(-c2ccc(Cl)c(Cl)c2)nc2cc(C(F)(F)F)ccc12 (stereo not drawn) | 3.68

Row | SMILES | log(1/C)
26 | CCCCN(CCCC)CC(O)c1c(C)cnc2c1ccc1ccccc12 (stereo not drawn) | 2.15
27 | CCCCN(CCCC)CC(O)c1cc(-c2ccc(Cl)cc2)nc2cc(Cl)c(C)cc12 (stereo not drawn) | 4.22
28 | CCCCCCCCN(CCCCCCCC)CC(O)c1ccnc2ccccc12 (stereo not drawn) | 2.44
29 | OC(CNC12CC3CC(CC(C3)C1)C2)c1cc(-c2ccc(Cl)cc2)nc2cc(Cl)ccc12 (stereo not drawn) | 3.24
30 | OC(CCC1CCCCN1)c1cc(C(F)(F)F)nc2c(C(F)(F)F)cccc12 (stereo not drawn) | 3.36
31 | CCCCCCCN(CCCCCCC)CC(O)c1cc2ccc(Cl)cc2c2ccncc12 (stereo not drawn) | 2.31
32 | CCCCN(CCCC)CC(O)c1cccc2c1cc(Br)c1ccccc12 (stereo not drawn) | 2.15
33 | CCCCN(CCCC)CC(O)c1cc(-c2ccc(Cl)cc2)cc2cc(Cl)c(OC)cc12 (stereo not drawn) | 2.96
34 | OC(CC1CCCCN1)c1cc(-c2ccc(Cl)cc2)nc2c(Cl)cc(Cl)cc12 (stereo not drawn) | 3.97
35 | CCCCCN(CCCCC)CC(O)c1cc2ccc(C(F)(F)F)cc2c2ccsc12 (stereo not drawn) | 2.69
36 | CCCCCCCN(CCCCCCC)CC(O)c1cc2ccsc2c2cc(C(F)(F)F)ccc12 (stereo not drawn) | 2.77
37 | CCCCN(CCCC)CC(O)c1cc(-c2ccc(Cl)cc2)nc2c(C(F)(F)F)cc(OC)cc12 (stereo not drawn) | 3.93
38 | CCCCN(CCCC)CC(O)c1c2ccccc2cc2ccccc12 (stereo not drawn) | 2.35
39 | CCCCN(CCCC)CC(O)c1cc(C(C)(C)C)nc2ccc(Cl)cc12 (stereo not drawn) | 2.91
40 | CCCCCCN(CCCCCC)CC(O)c1cc(-c2ccc(Cl)cc2)nc(-c2ccc(Cl)cc2)c1 (stereo not drawn) | 3.18
41 | CCOC(CCCNCC(O)c1cc2ccc(C(F)(F)F)cc2c2cc(C(F)(F)F)ccc12)OCC (stereo not drawn) | 3.55
42 | OC(CC1CCCCN1)c1cc2ccc(Cl)cc2c2cc(Cl)ccc12 (stereo not drawn) | 3.5
43 | CCCCN(CCCC)CC(O)c1cc(-c2ccc(Cl)c(Cl)c2)nc(-c2ccc(Cl)c(Cl)c2)c1 (stereo not drawn) | 2.63
44 | CCN(CC)CC(O)c1cc(-c2ccc(Cl)c(Cl)c2)nc2cc(OC)ccc12 (stereo not drawn) | 3.32
45 | CCCCN(CCCC)CC(O)c1c(C)c(-c2ccc(Cl)cc2)nc2c(Cl)cc(Cl)cc12 (stereo not drawn) | 3.06
46 | CCCCN(CCCC)CC(O)c1cc(-c2ccc(Cl)cc2)nc2c(C(F)(F)F)cccc12 (stereo not drawn) | 3.69
47 | CCCCN(CCCC)CC(O)c1cc2c(Br)cccc2c2cc(Br)ccc12 (stereo not drawn) | 2.9
48 | COc1cc2c(C(O)CC3CCCCN3)cc(-c3ccc(Cl)c(Cl)c3)cc2cc1Cl (stereo not drawn) | 3.14
49 | COc1ccc(-c2cc(C(O)CC3CCCCN3)c3ccccc3n2)cc1 (stereo not drawn) | 2.53
50 | OC(CC1CCCCN1)c1cc2cc(Br)ccc2c2ccccc12 (stereo not drawn) | 3.25

Row | SMILES | log(1/C)
51 | Cc1ccc2c(C(O)CC3CCCCN3)cc3ccccc3c2c1 (stereo not drawn) | 2.83
52 | CC(C)(C)NCCC(O)c1cc(C(F)(F)F)nc2c(C(F)(F)F)cccc12 (stereo not drawn) | 3.47
53 | OC(CC1CCCCN1)c1cc(Oc2ccc(Cl)cc2)nc2ccccc12 (stereo not drawn) | 2.68
54 | CCN(Cc1cc(N)ccc1OC)CC(O)c1cc2ccccc2c2cc(Br)ccc12 (stereo not drawn) | 2.97
55 | Cc1ccc(Oc2cc(C(O)CC3CCCCN3)c3cc(C)ccc3n2)cc1 (stereo not drawn) | 2.35
56 | CCCCN(CCCC)CC(O)c1cc2ccc(C(F)(F)F)cc2c2cc(Cl)ccc12 (stereo not drawn) | 3.88
57 | CCCCCCCN(CCCCCCC)CC(O)c1cc2c(Br)cccc2c2cc(C(F)(F)F)ccc12 (stereo not drawn) | 3.43
58 | CCCCN(CCCC)CC(O)c1cc(/C=C/c2ccc(Cl)cc2)cc(C(F)(F)F)c1 (stereo not drawn) | 4.37
59 | CCCCN(CCCC)CC(O)c1cc(-c2ccc(Cl)cc2)nc2ccc(F)cc12 (stereo not drawn) | 3.11
60 | CN1CCN(CC(O)c2cc(-c3ccccc3)nc3c(Cl)cc(Cl)cc23)CC1 (stereo not drawn) | 2.48
61 | OC(CC1CCCNC1)c1cc2ccc(C(F)(F)F)cc2c2cc(C(F)(F)F)ccc12 (stereo not drawn) | 3.89
62 | CCCN(CCC)CC(O)c1cc(-c2ccc(Cl)cc2)nc(-c2ccc(Cl)cc2)c1 (stereo not drawn) | 3.3
63 | OC(CC1CCCCN1)c1cc2ccc(C(F)(F)F)cc2c2cc(Br)ccc12 (stereo not drawn) | 3.86
64 | OC(CC1CCCCN1)c1cc2cc(Br)c(Br)cc2c2cc(C(F)(F)F)ccc12 (stereo not drawn) | 3.58
65 | OC(CC1CCCCN1)c1cc2ccc(C(F)(F)F)cc2c2cc(Cl)c(Cl)cc12 (stereo not drawn) | 4.02
66 | C=C[C@H]1CN2CC[C@H]1C[C@H]2[C@H](O)c1ccnc2ccc(OC)cc12 [QUININE] | 2.06
67 | CCCCN(CCCC)CC(O)c1cc(-c2ccc(Cl)cc2)nc2cc(F)ccc12 (stereo not drawn) | 3.62
68 | CCCCNCC(O)c1cc(-c2ccc(Cl)cc2)cc2cc(Cl)ccc12 (stereo not drawn) | 3.29
69 | CCCCCCCN(CCCCCCC)CC(O)c1cc2c(Cl)cc(Cl)cc2c2cc(C)sc12 (stereo not drawn) | 3.48
70 | CCCCN(CCCC)CC(O)c1cc(Cl)cc2c1-c1ccc(Cl)cc1C2=O (stereo not drawn) | 3.39
71 | OC(CNC12CC3CC(CC(C3)C1)C2)c1cc(-c2ccc(Cl)cc2)nc(-c2ccc(Cl)cc2)c1 (stereo not drawn) | 3.23
72 | CCC(C)NCC(O)c1cc(-c2ccc(Cl)cc2)nc(-c2ccc(Cl)cc2)c1 (stereo not drawn) | 4.09
73 | OC(CNC12CC3CC(CC(C3)C1)C2)c1cc(-c2ccccc2)nc2c(Cl)cc(Cl)cc12 (stereo not drawn) | 2.36
74 | CCCCN(CCCC)CC(O)c1cc(-c2ccc(F)cc2)nc(-c2ccc(F)cc2)c1 (stereo not drawn) | 3.23
75 | CS(=O)(=O)c1ccc2cc(C(O)CC3CCCCN3)c3ccc(C(F)(F)F)cc3c2c1 (stereo not drawn) | 3.32

Row | SMILES | log(1/C)
76 | CCCCN(CCCC)CC(O)c1ccnc2c1cnc1cc(Cl)ccc12 (stereo not drawn) | 2.11
77 | CCCCCCCN(CCCCCCC)CC(O)c1cc2ccccc2c2ccccc12 (stereo not drawn) | 2.87
78 | CC[C@H]1CN2CC[C@H]1C[C@H]2[C@H](O)c1ccnc2ccc(OC)cc12 [HYDROQUININE] | 2.04
79 | OC(CC1CCCCN1)c1cc2cc(Cl)c(Cl)cc2c2cc(Br)ccc12 (stereo not drawn) | 3.91
80 | Cc1cccc2c(C(O)CC3CCCCN3)cc(-c3ccc(Cl)cc3)nc12 (stereo not drawn) | 3.67
81 | CCCCCCCCCN(CCCCCCCCC)CC(O)c1c2ccccc2cc2ccccc12 (stereo not drawn) | 3.24
82 | CCCCCCCN(CCCCCCC)CC(O)c1cc(-c2ccc(Cl)cc2)nc(-c2ccc(Cl)cc2)c1 (stereo not drawn) | 2.67
83 | CCCCN(CCCC)CC(O)c1cc(C(C)(C)C)nc2c1cc(Cl)c1ccccc12 (stereo not drawn) | 2.98
84 | CCCCN(CCCC)CC(O)c1cc(-c2ccc(OC)cc2)nc(-c2ccc(OC)cc2)c1 (stereo not drawn) | 2.17
85 | CCCCN(CCCC)CC(O)c1c(Cl)cc(Cl)c2nc(-c3ccc(Cl)cc3)ccc12 (stereo not drawn) | 3.6
86 | OC(CC1CCCCN1)c1cc(-c2ccccc2)nc2c1ccc1ccccc12 (stereo not drawn) | 3.05
87 | CCCCN(CCCC)CC(O)c1cc(Oc2ccc(Cl)cc2)cc2c(Cl)cc(Cl)cc12 (stereo not drawn) | 2.57
88 | OC(CC1CCCCN1)c1cc2ccccc2c2cc(Br)ccc12 (stereo not drawn) | 3.49
89 | CCCCCN(CCCCC)CC(O)c1cccc2c1ccc1ccccc12 (stereo not drawn) | 2.33
90 | OC(CC1CCCCN1)c1cc(-c2ccc(C(F)(F)F)cc2)nc(C(F)(F)F)c1 (stereo not drawn) | 4.32
91 | OC(CC1CCCCN1)c1ccnc2cc(Cl)ccc12 (stereo not drawn) | 2.14
92 | CCCCN(CCCC)CC(O)c1cc(C(=O)c2ccc(Cl)cc2)cc2c(Cl)cc(Cl)cc12 (stereo not drawn) | 2.66
93 | CCCCCN(CCCCC)CC(O)c1cc2ccc(Br)cc2c2cc(Br)ccc12 (stereo not drawn) | 3.72
94 | CCCCCCCN(CCCCCCC)CCC(O)c1cc2ccccc2c2ccccc12 (stereo not drawn) | 3
95 | CCCCCCN(CCCCCC)CC(O)c1cccc2c1ccc1ccccc12 (stereo not drawn) | 2.03
96 | CCCCN(CCCC)CC(O)c1c(OC)c(-c2ccc(Cl)cc2)nc2c(C)cc(C)cc12 (stereo not drawn) | 3.26
97 | CCCC[N+]([O-])(CCCC)CC(O)c1cc(-c2ccc(Cl)cc2)nc(-c2ccc(Cl)cc2)c1 (stereo not drawn) | 3.57
98 | CCCCN(CCCC)CC(O)c1cc(-c2c(Cl)cccc2Cl)nc2c(Cl)cc(Cl)cc12 (stereo not drawn) | 2.41
